The test system of one data set is PC12 cells. Nature of the data set: CellTox assay, survival of PC12 cells under serum deprivation. It counts as cell-based. The conditions noted are these: compound 500 nM, 24 h, after 4 h serum starvation; NGF 100 ng/mL as control (Figure 9).
Data set [1] relates to NIH-3T3 TrkB-expressing cell line. Nature of the data set: CellTox Green cytotoxicity assay in NIH-3T3 cells stable transfected with TrkB under serum deprivation. The conditions noted are these: compound 1 μM, 24 h, after 24 h serum starvation; BDNF 500 ng/mL as control. It is filed as cell-based. The method in brief: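 TrkB-transfected NIH-3T3 cells were serum-starved for 24 h, then exposed 24 h to compounds at 1 μM or BDNF 500 ng/mL as control. Dead cells stained with CellTox Green and total cells with Hoechst 33342, imaged by microscopy. CellTox-positive counts normalised to total cells per image.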

For the next data set, the target named is T1, CYP2C9 (Homo sapiens, UniProt P11712).
T1 construct: purchased Thermo Fisher Scientific; host or cells: Baculosomes
T1 sequence (P11712 whole entry): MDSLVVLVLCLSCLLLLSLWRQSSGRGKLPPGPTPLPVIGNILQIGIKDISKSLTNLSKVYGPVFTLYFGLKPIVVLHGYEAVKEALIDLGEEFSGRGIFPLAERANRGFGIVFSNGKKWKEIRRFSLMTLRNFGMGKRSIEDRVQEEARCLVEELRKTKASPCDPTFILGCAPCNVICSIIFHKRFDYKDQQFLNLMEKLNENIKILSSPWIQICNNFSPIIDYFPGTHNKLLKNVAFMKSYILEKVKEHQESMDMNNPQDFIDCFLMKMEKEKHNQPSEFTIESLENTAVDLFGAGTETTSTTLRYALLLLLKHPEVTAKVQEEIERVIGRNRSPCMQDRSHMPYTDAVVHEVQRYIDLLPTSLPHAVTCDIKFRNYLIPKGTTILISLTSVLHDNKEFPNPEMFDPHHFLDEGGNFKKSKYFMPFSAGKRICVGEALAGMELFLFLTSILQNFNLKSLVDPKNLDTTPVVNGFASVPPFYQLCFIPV
Description: Isozyme-specific CYP450 inhibition, CYP2C9. It is filed as in vitro ADME. The conditions noted are these: 1 μM, 60 min, recombinant human CYP450 (Baculosomes). The procedure:
Human cytochrome P450 (CYP450) isoenzymes were expressed in Baculosomes®, purchased from Thermo Fisher Scientific (Waltham, MA, USA). All reagents were handled and prepared according to the manufacturer's protocol. Test compounds were assessed at 1 μM for their effects on CYP1A2, CYP2A6, CYP2C9, CYP2C19, CYP2D6, and CYP3A4. Approximately 1 μM was selected based on our ADMET standard operating procedures and protocols also published previously (Rogdakis et al., [2022]; Yilmaz et al., [2022]). CYP450-enzymatic activity was determined based on the kinetic model for each CYP450 isoform (Cohen et al., [2003]; Veith et al., [2009]). Reactions took place in triplicates at 20°C. For this, NADP^+ (10 mM in 100 mM potassium phosphate, pH 8.0) was converted into NADPH by the regeneration system present (glucose-6-phosphate at 333 mM and glucose-6-phosphate-dehydrogenase at 30 U/mL in 100 mM potassium phosphate, pH 8.0). Following the addition of the fluorescent substrate, signal monitoring over time took place immediately (<2 min) at suitable excitation and emission wavelengths (Agilent BioTek Lionheart FX). CYP450 inhibition (%) was determined based on the reaction rates (fluorescence intensity changes per unit time). In total, n = 60 measurements […] were acquired (t = 60 min).
% Inhibition=(1-X/A)×100%
X is the rate observed in the presence of the test compound.
A is the rate observed in the presence of the negative (solvent, DMSO) control.

For `C[C@]12CC[C@H](O)CC1=CC[C@@H]1[C@@H]2CC[C@@]2(C)[C@H]1CC[C@@]21CC=C(Cn2cc(Cc3ccccc3)nn2)CO1` [ENT-A055, (3S,17R)-5′-[(4-benzyl-1H-1,2,3-triazol-1-yl)methyl]-3′,6′-dihydrospiro[5-androstene-17,2′-pyran]-3-ol], the “protection of PC12 cells from serum deprivation-induced cell death (CellTox)” value in the data set with PC12 cells is “without showing any antiapoptotic activity in PC12 cells”. Further, the “protection of NIH-3T3-TrkB cells from serum deprivation-induced cell death (CellTox)” value in data set [1] is “significantly reduce cell death levels compared to the serum-free control, comparable to the BDNF action”. Moreover, the “inhibition for CYP2C9” value on CYP2C9 is “moderate-to-strong inhibition”.

The values are drawn from publication PMC10568017, “A quest for the stereo-electronic requirements for selective agonism for the neurotrophin receptors TrkA and TrkB in 17-spirocyclic-dehydroepiandrosterone derivatives” (Frontiers in Molecular Neuroscience, 2023).
